Laboratory results taken from patent publication US20250034125A1, “COMPOUNDS AND USES THEREOF” (JANSSEN PHARMACEUTICA NV, priority 2019, published 2025).
Like-named read-outs stand apart in the source and are kept apart here.

Columns and labels:
[1] = molecular target: T1, SCD1 (Homo sapiens, UniProt O00767); assay: Growth inhibition of yeast (ole1Δ) expressing human SCD1 as the sole desaturase; type: cell-based
T1 construct: host or cells: Saccharomyces cerevisiae ole1Δ strain (W303 pdr1Δ pdr3Δ background), plasmid pRS316, TDH3 promoter
T1 sequence (O00767 1-359): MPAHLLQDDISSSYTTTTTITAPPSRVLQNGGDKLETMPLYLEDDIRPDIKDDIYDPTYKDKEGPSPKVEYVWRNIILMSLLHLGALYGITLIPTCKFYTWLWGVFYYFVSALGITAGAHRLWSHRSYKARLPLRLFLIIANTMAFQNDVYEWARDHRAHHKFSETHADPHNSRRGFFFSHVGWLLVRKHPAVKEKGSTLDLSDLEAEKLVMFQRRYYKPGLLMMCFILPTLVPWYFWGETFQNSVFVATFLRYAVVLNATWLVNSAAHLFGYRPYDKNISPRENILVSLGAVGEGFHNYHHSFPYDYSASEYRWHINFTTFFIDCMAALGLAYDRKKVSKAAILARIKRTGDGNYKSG

[2] = molecular target: T2, SCD5 (Homo sapiens, UniProt Q86SK9); assay: Growth inhibition of yeast (ole1Δ) expressing human SCD5 as the sole desaturase; type: cell-based
T2 construct: host or cells: Saccharomyces cerevisiae ole1Δ strain (W303 pdr1Δ pdr3Δ background), plasmid pRS316, TDH3 promoter
T2 sequence (Q86SK9 1-330): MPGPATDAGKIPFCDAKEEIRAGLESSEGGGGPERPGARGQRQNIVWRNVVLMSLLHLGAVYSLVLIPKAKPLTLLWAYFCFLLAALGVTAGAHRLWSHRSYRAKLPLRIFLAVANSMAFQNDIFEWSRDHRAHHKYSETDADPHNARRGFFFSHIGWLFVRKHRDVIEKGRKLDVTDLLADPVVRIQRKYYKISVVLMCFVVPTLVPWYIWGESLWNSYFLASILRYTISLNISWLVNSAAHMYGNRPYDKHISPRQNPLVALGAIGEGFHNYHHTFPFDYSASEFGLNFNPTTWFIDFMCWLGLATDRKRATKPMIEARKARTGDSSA

[3] = yeast strain with SCD1 plasmid, OD600 growth read at 40 h, read-out: SCD1 IC50
[4] = yeast strain with SCD5 plasmid, OD600 growth read at 40 h, read-out: SCD5 IC50

Compound	IC50 [1] [nM]	IC50 [2] [nM]	IC50 [1, 3] [nM]	IC50 [2, 4] [nM]
Cn1nc(NC(=O)N2CCC(Nc3cc(F)cc(Cl)c3)CC2)ccc1=O [Compound 93, 4-((3-chloro-5-fluorophenyl)amino)-N-(1-methyl-6-oxo-1,6-dihydropyridazin-3-yl)piperidine-1-carboxamide]	> 45000	15000		
Cn1cc(CC(=O)N2CCC(Oc3cccc(Cl)c3)CC2)ccc1=O [Compound 5, 5-(2-(4-(3-chlorophenoxy)piperidin-1-yl)-2-oxoethyl)-1-methylpyridin-2(1H)-one]			> 45000	> 45000
O=C(Cc1ccc(=O)[nH]n1)N1CCC(Cc2cccc(Cl)c2)CC1 [Compound 34]			> 45000	8200
Cn1nc(-c2nc(N3CCC(Oc4cc(F)cc(F)c4)CC3)no2)ccc1=O [Compound 111, 6-(3-(4-(3,5-difluorophenoxy)piperidin-1-yl)-1,2,4-oxadiazol-5-yl)-2-methylpyridazin-3(2H)-one]			> 45000	610
Cn1cc(NC(=O)N2CCC(Cc3cc(F)cc(Cl)c3)CC2)ccc1=O [Compound 8, 4-(3-chloro-5-fluorobenzyl)-N-(1-methyl-6-oxo-1,6-dihydropyridin-3-yl)piperidine-1-carboxamide]			2320	830
Cn1nc(NC(=O)N2CCC(Cc3cc(F)cc(C#N)c3)CC2)ccc1=O [Compound 50]			17100	2460
COc1ccccc1OC1CCN(C(=O)Nc2ccc(=O)n(C)n2)CC1 [Compound 73, 4-(2-methoxyphenoxy)-N-(1-methyl-6-oxo-1,6-dihydropyridazin-3-yl)piperidine-1-carboxamide]			31900	12500
Cn1nc(NC(=O)N2CCC(F)(Cc3cc(F)c(F)c(Cl)c3)CC2)ccc1=O [Compound 66, 4-(3-chloro-4,5-difluorobenzyl)-4-fluoro —N-(1-methyl-6-oxo-1,6-dihydropyridazin-3-yl)piperidine-1-carboxamide]			6500	920
Cn1nc(NC(=O)N2CCC(Cc3cc(F)c(F)cc3Cl)CC2)ccc1=O [Compound 61, 4-(2-chloro-4,5-difluorobenzyl)-N-(1-methyl-6-oxo-1,6-dihydropyridazin-3-yl)piperidine-1-carboxamide]			80	40
Cc1cc(NC(=O)N2CCC(Cc3ccc(F)c(F)c3)CC2)nn(C)c1=O [Compound 129]			310	80
Cn1nc(NC(=O)N2CC=C(c3ccc(Cl)cc3)CCC2)ccc1=O [Compound 134, 5-(4-chlorophenyl)-N-(1-methyl-6-oxo-1,6-dihydropyridazin-3-yl)-2,3,4,7-tetrahydro-1H-azepine-1-carboxamide]			> 45000	> 45000
Cn1nc(NC(=O)N2CC[C@@H](Oc3ccc(F)c(F)c3)C2)ccc1=O [Compound 27, (3R)-3-(3,4-difluorophenoxy)-N-(1-methyl-6-oxo-1,6-dihydropyridazin-3-yl)pyrrolidine-1-carboxamide]			17000	> 45000
Cn1nc(NC(=O)N2CCC(Oc3cc(F)ccc3Cl)CC2)ccc1=O [Compound 82, 4-(2-chloro-5-fluorophenoxy)-N-(1-methyl-6-oxo-1,6-dihydropyridazin-3-yl)piperidine-1-carboxamide]			50	20
Cn1nc(NC(=O)N2CCC(Oc3ccccc3C(F)(F)F)CC2)ccc1=O [Compound 75, N-(1-methyl-6-oxo-1,6-dihydropyridazin-3-yl)-4-(2-(trifluoromethyl)phenoxy) piperidine-1-carboxamide]			220	70
Cn1nc(-c2noc(N3CCC(Cc4ccc(F)c(F)c4)CC3)n2)ccc1=O [Compound 123, 6-(5-(4-(3,4-difluorobenzyl)piperidin-1-yl)-1,2,4-oxadiazol-3-yl)-2-methylpyridazin-3(2H)-one]			4900	1400
